According to article PMC7554340, “A Novel Dual-Targeted α-Helical Peptide With Potent Antifungal Activity Against Fluconazole-Resistant Candida albicans Clinical Isolates” (Frontiers in Microbiology, 2020):
Values after ≈ are worked out from the molar mass of the structure shown.

Assays:
[1] = system: C. albicans 56214; conditions: 56214, 48 h
[2] = system: C. albicans 17546; conditions: 17546, 48 h
[3] = system: C. parapsilosis cgmcc 2.3989; assay: Antifungal activity assay (broth microdilution, MIC/MFC); format: cell-based, Candida parapsilosis; conditions: cgmcc 2.3989, 48 h
[4] = system: C. albicans 14936; conditions: 14936, 48 h
[5] = system: C. albicans sp3903; conditions: sp3903, 48 h
[6] = system: C. albicans sp3902; conditions: sp3902, 48 h
[7] = system: C. albicans sp3931; conditions: sp3931, 48 h
[8] = system: C. albicans strains; assay: Geometric mean of MIC values against all tested C. albicans; format: cell-based, Candida albicans
[9] = system: C. albicans cgmcc 2.2086; assay: Membrane potential assay, DiSC3(5); format: cell-based, Candida albicans; conditions: 0.5 × MIC
From the text: The alteration of membrane potential in peptide-treated C. albicans was detected using the membrane potential-sensitive fluorescent probe, 3,3′-dipropylthiadicarbocyanine iodide [DiSC3(5)] (Sigma-Aldrich, Shanghai, China), as previously described ([Qi et al., 2010]). In brief, C. albicans cells in mid-logarithmic growth-phase were harvested and suspended to an OD600 of 0.05 with 5-mM 4-(2-hydroxyethyl)-1-piperazineethanesulfonic acid buffer (pH 7.4, containing 20-mM glucose). After the addition of 0.4-μM DiSC3(5), samples were incubated for 90 min in the dark to obtain a stable reduction in fluorescence, and then, potassium chloride (4 M) was added to the cell suspension to give a final concentration of 100 mM. Subsequently, 2 ml of cell suspension was added to a 1-cm quartz cuvette and mixed with peptides at different concentrations. The changes in fluorescence were recorded for 900 s with an F-4500 fluorescence spectrophotometer (Hitachi, Japan) at excitation and emission wavelengths of 622 and 670 nm, respectively.

[10] = system: C. tropicalis cgmcc 2.1975; assay: Antifungal activity assay (broth microdilution, MIC/MFC); format: cell-based, Candida tropicalis; conditions: cgmcc 2.1975, 48 h
[11] = system: C. albicans 56452; conditions: 56452, 48 h
[12] = system: C. albicans sp3876; conditions: sp3876, 48 h
[13] = system: C. albicans cgmcc 2.2086; assay: Antifungal activity assay (broth microdilution, MIC/MFC); format: cell-based, Candida albicans; conditions: cgmcc 2.2086, 48 h
[14] = system: C. albicans 58288; conditions: 58288, 48 h

**Q.** Which results are given for `CC[C@H](C)[C@H](NC(=O)CN)C(=O)NCC(=O)N[C@@H](C)C(=O)N[C@H](C(=O)N[C@@H](CC(C)C)C(=O)N[C@@H](CCCCN)C(=O)N[C@H](C(=O)N[C@@H](CC(C)C)C(=O)N[C@H](C(=O)N[C@H](C(=O)NCC(=O)N[C@@H](CC(C)C)C(=O)N1CCC[C@H]1C(=O)N[C@@H](C)C(=O)N[C@@H](CC(C)C)C(=O)N[C@H](C(=O)N[C@@H](CO)C(=O)N[C@@H](Cc1c[nH]c2ccccc12)C(=O)N[C@H](C(=O)N[C@@H](CCCCN)C(=O)N[C@@H](CCCNC(=N)N)C(=O)N[C@@H](CCCCN)C(=O)N[C@@H](CCCNC(=N)N)C(=O)N[C@@H](CCC(N)=O)C(=O)N[C@@H](CCC(N)=O)C(N)=O)[C@@H](C)CC)[C@@H](C)CC)[C@@H](C)O)[C@@H](C)O)C(C)C)C(C)C` [Melittin, reference compound]?
**A.** MFC [1]: 4 µM (≈ 11.4 µg/mL); MIC ([1]; pH 7): 4 µM (≈ 11.4 µg/mL); MFC [2]: 8 µM (≈ 22.8 µg/mL); MIC ([2]; pH 7): 8 µM (≈ 22.8 µg/mL); MFC [3]: 2 µM (≈ 5.69 µg/mL); MIC ([3]; pH 7): 2 µM (≈ 5.69 µg/mL); MFC [4]: 8 µM (≈ 22.8 µg/mL); MIC ([4]; pH 7): 4 µM (≈ 11.4 µg/mL); MFC [5]: 4 µM (≈ 11.4 µg/mL); MIC ([5]; pH 7): 4 µM (≈ 11.4 µg/mL); MFC [6]: 2 µM (≈ 5.69 µg/mL); MIC ([6]; pH 7): 2 µM (≈ 5.69 µg/mL); MFC [7]: 8 µM (≈ 22.8 µg/mL); MIC ([7]; pH 7): 8 µM (≈ 22.8 µg/mL); GM [8]: 4.59 µM; cytoplasmic membrane depolarization, melittin against RF3 (in words) [9]: stronger membrane depolarization; MFC [10]: 8 µM (≈ 22.8 µg/mL); MIC ([10]; pH 7): 4 µM (≈ 11.4 µg/mL); MFC [11]: 8 µM (≈ 22.8 µg/mL); MIC ([11]; pH 7): 8 µM (≈ 22.8 µg/mL); MFC [12]: 4 µM (≈ 11.4 µg/mL); MIC ([12]; pH 7): 4 µM (≈ 11.4 µg/mL); MFC [13]: 8 µM (≈ 22.8 µg/mL); MIC ([13]; pH 7): 4 µM (≈ 11.4 µg/mL); MFC [14]: 4 µM (≈ 11.4 µg/mL); MIC ([14]; pH 7): 4 µM (≈ 11.4 µg/mL)
